Where “and” joins values, the source holds several entries; their conditions need not be identical. Equal values may be shown once. Entries after “also recorded” stand apart in the source; their conditions may differ. Read-outs that look alike come from different tables or passages of the source.
How the values were obtained:
[1] = cited from earlier work
[2] = cited from earlier work; remark: listed apart in the source
[3] = Therapeutic drug monitoring (TDM) serum concentrations in patients; conditions: for Serum concentration, 10% percentile / Serum concentration, 25% percentile / Serum concentration, 50% percentile / Serum concentration, 75% percentile / Serum concentration, 90% percentile / Serum concentration, maximum / Serum concentration, minimum: trough; for Serum concentration, mean: trough (10-28 h after dose)
Description: (§1) Information regarding age, sex, daily dose and time between last dose and blood sampling was also collected from the database. For patients with multiple TDM measurements, only the last measurement was included. Included patients were divided into four subgroups based on age: (a) < 18, (b) 18–64, (c) 65–80, and (d) > 80 years.
(§2) Measured serum concentrations represent total concentrations, i.e. the sum of bound and unbound drug.
(§3) All patients were included unless they met the exclusion criteria. Exclusion criteria were: (a) serum concentration of citalopram, escitalopram and/or demethylcitalopram outside the limits of quantification (LOQ), (b) blood sampling not performed at trough levels, outside the time interval of 10–28 h after last dose intake, (c) prescribed dose of citalopram or escitalopram less/more than 2.5–80 mg or 2.5–60 mg, respectively, and (d) detection of interacting drugs in the citalopram/escitalopram serum sample. In detail, we screened the samples for CYP2C19 inducers carbamazepine, phenobarbital and phenytoin and the CYP2C19 or –2D6 inhibitors bupropion, fluoxetine, fluvoxamine, paroxetine or levomepromazine.
(§4) Differences in absolute serum concentrations of citalopram, escitalopram and metabolites as well as differences in time between last blood sampling and daily dose was investigated across the age subgroups using Kruskal Wallis test followed by Dunn's test. P-values were Bonferroni corrected by multiplying the P-value by the number of statistical analyses that were performed.

[4] = set-up: method as in earlier work; conditions: cited from earlier work
[5] = human, in vivo
Description: as §1, §2, §3, §4

[6] = system: human induced pluripotent stem cell-derived cardiomyocytes (hiPSC-CM); experiment: Action potential recordings in hiPSC-CM with voltage sensitive dye (FluoVolt, CellOPTIQ); assay type: cell-based; conditions: for Triangulation effect: 10 times typical concentrations; for Electrical activity of the cells: highest concentrations (100 times typical); for Depolarisation (phase 0) measured by TRise: increasing concentrations; for Early and medium repolarisation (APD30 and APD50): intermediate concentrations; for Triangulation (APD90-APD30) effect: low concentrations; for Late repolarisation: lowest tested concentrations
Description: Cryopreserved human induced pluripotent stem cell-derived cardiomyocytes (hiPSC-CM): CDI iCell cardiomycytes^2 01434 CardioTox Kit (Catalog #: R1222, FujiFilm CDI, Madison, WI) were kept in liquid nitrogen until culture according to instructions by the manufacturer. […] All studies were conducted at Clyde Biosciences (Glasgow, Scotland). Cells were cultured in 96-well glass-bottomed plates (MatTek, Ashland, Massachusetts) coated with fibronectin ([…] in PBS supplemented with Ca2+ and Mg2+) (Sigma, St. Louis, Missouri) in a humidified incubator at 37 °C for 3 h. The cell density was 50,000 cells/cm2 (25,000 cells/well). The subsequent maintenance protocols followed manufacturer's instructions using their maintenance medial (FujiFilm CDI Cardiomyocytes Maintenance Media). Experiments were performed between days 4–8. Prior to beginning an experiment, cells were washed in serum-free media (SF media), specifically DMEM (Gibco, ThermoFisher Scientific, UK) supplemented with 10 mM galactose and 10 mM sodium pyruvate.
hiPSC-CM were loaded with 5 μM FluoVolt (ThermoFisher) and the multiwell plate was placed in the CellOPTIQ platform (at Clyde Biosciences Ltd, Glasgow, Scotland). The FluoVolt fluorescence signal was recorded using a 40 × (NA 0.6) objective lens. Excitation wavelength was 480 ± 10 nm, and emitted light was collected by a photomultiplier (PMT) at 510–560 nm. Drugs were supplied by Santa Cruz Biotechnology (Germany) and Toronto Research Chemicals (Canada). Their identity and concentration were blinded from the laboratory personnel. […] 30 min after exposure to the tested drug or vehicle a 20 s recording was taken. Offline analysis was performed using proprietary software (CellOPTIQ®). The following (averaged) parameters were obtained from the AP recordings of 4 independent replicates: cycle length (CL, […]); rise time (Trise, ms) between 10 and 90% of the AP amplitude, and AP durations (APD, ms) from 10% to 90% repolarization at 10% intervals. In this study rate-correction was based on previous studies.[14]
Drugs were tested at 3 concentrations with matched vehicle controls for each concentration. The chosen escitalopram (S-citalopram) concentration was 60 nM. Assuming no protein binding in the in vitro model, this corresponds to a total serum concentration of 136 nM, as escitalopram protein binding is reported at 55–56% (most commonly 56%, which is used in the present study).[15], [16], [17] […] This could vary with age and clinical conditions.[20] […] In a large therapeutic drug monitoring (TDM) study 60 nM was the average total concentration in patients with normal escitalopram metabolism through CYP2C19, and 136 nM was below the average total concentration in poor metabolizers.[7] After administration of racemic citalopram, R-citalopram is reported to be 3 times higher than S-citalopram in a publication by Ji et al.[22] The typical concentration of R-citalopram as well as the S-/R-demethylcitalopram and S-/R-didemethylcitalopram metabolites, were calculated according to ratios from their paper.[22]
Shapiro Wilk tests were used to determine whether the data in this study were normally distributed based on a least-squares fit to a normal function, while Brown–Forsythe test was used to verify homogeneity of variance (Origin version 9, OriginLab Corp., Northampton, Massachusetts). […] Statistical tests were made using a paired t-tests for differences between absolute values, with P-values adjusted for multiple comparisons using the Benjamini-Hochberg procedure (one-way ANOVA). The relationship between AP duration at 90% of repolarization (APD90) and CL or diastolic interval was fit to single or double exponential functions (Origin version 9).

[7] = set-up: method as in PMID 19841156; conditions: cited from earlier work
plasma protein = system: plasma protein; set-up: method as in PMID 17375980; conditions: listed as escitalopram; cited from earlier work
[8] = hiPSC-CM, 10x clinical concentration
[9] = hiPSC-CM, 100x clinical concentration
[10] = hiPSC-CM, all tested concentrations
[11] = hiPSC-CM, clinical concentration

## CN(C)CCCC1(c2ccc(F)cc2)OCc2cc(C#N)ccc21 (stereo not drawn) [Citalopram, citalopram]
[1]; older patients (mean age 76), Canadian study
  Relative risk for hospitalization due to ventricular arrhythmia: 1.53
[2]
  Time of maximum concentration after intake (Tmax): 3 to 4 h
[3]; citalopram users
  Serum concentration, 10% percentile: 48 nM
  Serum concentration, 25% percentile: 84 nM
  Serum concentration, 50% percentile: 133 nM
  Serum concentration, 75% percentile: 211 nM
  Serum concentration, 90% percentile: 314 nM
  Serum concentration, maximum: 733 nM
  Serum concentration, minimum: 7 nM
  Serum concentration, mean: 163 nM

## CNCCCC1(c2ccc(F)cc2)OCc2cc(C#N)ccc21 (stereo not drawn) [Demethylcitalopram, demethylcitalopram]
[3]; citalopram users
  Serum concentration, 10% percentile: 23 nM
  Serum concentration, 25% percentile: 35 nM
  Serum concentration, 50% percentile: 55 nM
  Serum concentration, 75% percentile: 87 nM
  Serum concentration, 90% percentile: 130 nM
  Serum concentration, maximum: 395 nM
  Serum concentration, minimum: 5 nM
  Serum concentration, mean: 68 nM
[3]; escitalopram users
  Serum concentration, 10% percentile: 13 nM
  Serum concentration, 25% percentile: 18 nM
  Serum concentration, 50% percentile: 26 nM
  Serum concentration, 75% percentile: 37 nM
  Serum concentration, 90% percentile: 51 nM
  Serum concentration, maximum: 329 nM
  Serum concentration, minimum: 5 nM
  Serum concentration, mean: 30 nM

## N#Cc1ccc2c(c1)COC2(CCCN)c1ccc(F)cc1 (stereo not drawn) [Didemethylcitalopram, didemethylcitalopram]
[4]
  Serum concentrations associated with sudden death in dogs, relative to humans: 39–155 times
[5]
  Serum concentration, 10% percentile: 0.82 nM
  Serum concentration, 25% percentile: 1.72 nM
  Serum concentration, 50% percentile: 3.47 nM
  Serum concentration, 75% percentile: 5.90 nM
  Serum concentration, 90% percentile: 9.65 nM
  Serum concentration, maximum: 35.33 nM
  Serum concentration, minimum: 0.34 nM

## CN(C)CCC[C@]1(c2ccc(F)cc2)OCc2cc(C#N)ccc21 [R-citalopram]
[2]
  Concentration relative to S-citalopram after administration of racemic citalopram: 3 times
[6]; hiPSC-CM
  Triangulation effect: substantial increase
  Electrical activity of the cells: electrically quiescent
  Depolarisation (phase 0) measured by TRise: No changes; also recorded: No significant increase
  Early and medium repolarisation (APD30 and APD50): shortening
  Triangulation (APD90-APD30) effect: significantly increased
  Late repolarisation: prolonged
[6]; [8]
  % Change of cycle length from baseline: -1.96±5.39%
[6]; [9]
  % Change of cycle length from baseline: Quiescent
[6]; hiPSC-CM, 30 min exposure
  Concentration that increased triangulation (APD90-APD30) of the action potential: 180 nM
  Concentration that reduced medium repolarisation (APD50): 1800 nM
[6]; [10]
  Effect on cycle length: not affected
[6]; [11]
  % Change of cycle length from baseline: 0.99±7.43%

## CNCCC[C@]1(c2ccc(F)cc2)OCc2cc(C#N)ccc21 [R-demethylcitalopram]
[6]; hiPSC-CM
  Concentration dependence of triangulation: dose-dependent increase
[6]; hiPSC-CM, 2000 nM
  Effect on late repolarisation (APD90): not late repolarisation
[6]; [8]
  % Change of cycle length from baseline: -9.34±2.21 %
[6]; [9]
  % Change of cycle length from baseline: -8.55±6.93 %
[6]; hiPSC-CM, 30 min exposure
  Concentration that increased triangulation (APD90-APD30) of the action potential: 2000 nM
  Concentration that reduced early repolarisation (APD30): 2000 nM
[6]; [10]
  Effect on cycle length: limited shortening
[6]; [11]
  % Change of cycle length from baseline: -6.45±4.32 %

## N#Cc1ccc2c(c1)CO[C@]2(CCCN)c1ccc(F)cc1 [R-didemethylcitalopram]
[6]; hiPSC-CM
  Cardiotoxic at therapeutic concentrations: did not find indications
[6]; [8]
  % Change of cycle length from baseline: -1.09±3.49%
[6]; [9]
  % Change of cycle length from baseline: -1.67±2.65%
[6]; hiPSC-CM, 30 min exposure
  Concentration that increased early repolarisation (APD30): 60 nM
  Concentration that reduced triangulation (APD90-APD30): 6 nM
[6]; [10]
  Effect on cycle length: not affected
[6]; [11]
  % Change of cycle length from baseline: -1.40±5.04%

## CN(C)CCC[C@@]1(c2ccc(F)cc2)OCc2cc(C#N)ccc21 [S-citalopram]
[1]; after intake of 20 mg
  FDA-reported QTc-prolongation: 6.6 ms
[7]; CYP2C19 normal/rapid metabolizer
  Clearance, typical value (CLTV): 26.0 L/h
[7]; CYP2C19 poor/intermediate metabolizer
  Clearance, typical value (CLTV): 19.8 L/h
[7]; population PK model
  Absorption rate constant, typical value (KaTV): 0.8 h⁻¹
  Volume of distribution, typical value (VTV): 947 L
[2]
  Serum concentrations per dose, patients >65 years versus adults <40 years: 1.4 times
[2]; large TDM study
  Average total concentration in CYP2C19 poor metabolizers: > 136 nM
  Average total concentration in patients with normal escitalopram metabolism through CYP2C19: 60 nM
[2]; listed as escitalopram
  Time of maximum concentration after intake (Tmax): 3 to 4 h and 3.0 ± 1.5 h
[5]
  % of serum concentrations above 136 nM: 5.4-15.9%
[6]; assuming 56% plasma protein binding
  Calculated total serum concentration corresponding to a free concentration of 60 nM (potential pro-arrhythmic activity): 136 nM
[6]; hiPSC-CM
  Triangulation effect: substantial increase
  Electrical activity of the cells: electrically quiescent
  Depolarisation (phase 0) measured by TRise: No changes; also recorded: No significant increase
  Early and medium repolarisation (APD30 and APD50): shortening
  Triangulation (APD90-APD30) effect: significantly increased
  Late repolarisation: prolonged
[6]; [8]
  % Change of cycle length from baseline: -2.06±5.36%
[6]; [9]
  % Change of cycle length from baseline: Quiescent
[6]; hiPSC-CM, 30 min exposure
  Concentration that increased late repolarisation (APD90): 60 nM
  Concentration that increased triangulation (APD90-APD30) of the action potential: 60 nM
[6]; [10]
  Effect on cycle length: not affected
[6]; [11]
  % Change of cycle length from baseline: 2.14±4.47%
[6]; hiPSC-CM, lowest S-citalopram concentration (60 nM)
  Increase in APD90: 21.9 ms
[6]; lowest S-citalopram concentration, translation per ref 33
  QTc-prolongation corresponding to the APD90 increase: 6.2 ms
Plasma protein
  Plasma protein binding: 55–56% and 56%
[3]; escitalopram users
  Serum concentration, 10% percentile: 21 nM
  Serum concentration, 25% percentile: 33 nM
  Serum concentration, 50% percentile: 52 nM
  Serum concentration, 75% percentile: 84 nM
  Serum concentration, 90% percentile: 126 nM
  Serum concentration, maximum: 730 nM
  Serum concentration, minimum: 7 nM
  Serum concentration, mean: 66 nM

## CNCCC[C@@]1(c2ccc(F)cc2)OCc2cc(C#N)ccc21 [S-demethylcitalopram]
[6]; hiPSC-CM
  Concentration dependence of triangulation: dose-dependent increase
[6]; [8]
  % Change of cycle length from baseline: -3.81±3.22 %
[6]; [9]
  % Change of cycle length from baseline: -7.22±2.14 %
[6]; hiPSC-CM, 30 min exposure
  Concentration that increased late repolarisation (APD90): 1500 nM
  Concentration that increased triangulation (APD90-APD30) of the action potential: 150 nM
  Concentration that reduced early repolarisation (APD30): 1500 nM
[6]; [10]
  Effect on cycle length: limited shortening
[6]; [11]
  % Change of cycle length from baseline: -4.33±3.45 %

## N#Cc1ccc2c(c1)CO[C@@]2(CCCN)c1ccc(F)cc1 [S-didemethylcitalopram]
[6]; hiPSC-CM
  Cardiotoxic at therapeutic concentrations: did not find indications
[6]; [8]
  % Change of cycle length from baseline: 9.89±8.49%
[6]; [9]
  % Change of cycle length from baseline: 0.09±7.78%
[6]; hiPSC-CM, 30 min exposure
  Concentration that increased early repolarisation (APD30): 15 nM
  Concentration that increased late repolarisation (APD90): 15 nM
  Concentration that increased medium repolarisation (APD50): 15 nM
[6]; [10]
  Concentrations with significant effect on triangulation (APD90-APD30): No tested concentrations
  Effect on cycle length: not affected
[6]; hiPSC-CM, at concentrations higher than 15 nM
  Effects on medium to late repolarisation: not present
[6]; [11]
  % Change of cycle length from baseline: 1.42±3.67%

— PMC10474154, “Pro-arrhythmic effect of escitalopram and citalopram at serum concentrations commonly observed in older patients – a study based on a cohort of 19,742 patients” (eBioMedicine, 2023)
